Experimental data from US20060063784A1, “Method of using substituted pyrazolo [1,5-a] pyrimidines” (priority 2004, published 2006).

How the values were obtained:
[1] = system: 80S14 (p21-deficient) cells; assay: Cytotoxicity assay using isogenic cell lines: IC50 in 80S14 (p21-deficient) cells, SRB; assay type: cell-based, human; conditions: Homo sapiens, 120 h; 80S14 (p21-deficient) cells, 5 days, SRB; class symbols; read-out: IC50 for 80S14
Summary of the method: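 IC50 is the concentration halving proliferation relative to untreated controls, read from SRB absorbance (560 nm) after TCA fixation. Test agent dilutions (5 pM–50 μM or 170 pg/ml–10 μg/ml) were left on p21-deficient 80S14 cells (12,000/well, pre-incubated overnight) for 5 days at 37 °C.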

[2] = system: LoVo Colon cell line; assay: Cytotoxicity assay using LoVo colon cell line, SRB; assay type: cell-based; conditions: Homo sapiens, 96 h; Cellular activity in LoVo cell; 4 days incubation, SRB; read-out: Inhibition of LoVo
Summary of the method: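 Growth inhibition read by sulforhodamine B after 4-day compound exposure at 37 °C. Colon LoVo cells plated at 4000 per well in RPMI/10% FBS a day earlier; doses ranged 5 pM-20 μM or 170 pg/ml-10 μg/ml. IC50 is the concentration halving proliferation versus untreated wells.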

Compound	IC50 [1]	IC50 [2]
CC/C=C/CNc1cccc(-c2ccnc3c(C(=O)c4cccs4)cnn23)c1 [Example 432, (7-{3-[(2E)-Pent-2-enylamino]phenyl}pyrazolo[1,5-a]pyrimidin-3-yl)(thien-2-yl)methanone]	< 1000 nM	< 100 nM
CC(CCNc1cccc(-c2ccnc3c(C(=O)c4cccs4)cnn23)c1)CC(C)(C)C (stereo not shown) [Example 433, Thien-2-yl(7-{3-[(3,5,5-trimethylhexyl)amino]phenyl}pyrazolo[1,5-a]pyrimidin-3-yl)methanone]	1000 to 10000 nM	100 to 1000 nM
C=C(C)CNc1cccc(-c2ccnc3c(C(=O)c4cccs4)cnn23)c1 [Example 434, (7-{3-[(2-Methylprop-2-enyl)amino]phenyl}pyrazolo[1,5-a]pyrimidin-3-yl)(thien-2-yl)methanone]	1000 to 10000 nM	100 to 1000 nM
C=C(CC)CNc1cccc(-c2ccnc3c(C(=O)c4cccs4)cnn23)c1 [Example 435, (7-{3-[(2-Ethylprop-2-enyl)amino]phenyl}pyrazolo[1,5-a]pyrimidin-3-yl)(thien-2-yl)methanone]	1000 to 10000 nM	100 to 1000 nM
O=C(c1cccs1)c1cnn2c(-c3cccc(NCC4CC=CCC4)c3)ccnc12 (stereo not shown) [Example 436, (7-{3-[(cyclohex-3-en-1-ylmethyl)amino]phenyl}pyrazolo[1,5-a]pyrimidin-3-yl)-(thien-2-yl)-methanone]	< 1000 nM	< 100 nM
O=C(c1cccs1)c1cnn2c(-c3cccc(N4CCCC4=O)c3)ccnc12 [Example 437, 1-{3-[3-(Thien-2-ylcarbonyl)pyrazolo[1,5-a]pyrimidin-7-yl]phenyl}pyrrolidin-2-one]	< 1000 nM	< 100 nM
O=C(c1cccs1)c1cnn2c(-c3ccc(F)c(N(C(=O)c4ccccc4Cl)C(=O)c4ccccc4Cl)c3)ccnc12 [Example 438, 2-Chloro-N-(2-chlorobenzoyl)-N-{2-fluoro-5-[3-(thien-2-ylcarbonyl)pyrazolo[1,5-a]pyrimidin-7-yl]phenyl}benzamide]	< 1000 nM	< 100 nM
O=C(Cc1cccnc1)Nc1cccc(-c2ccnc3c(C(=O)c4cccs4)cnn23)c1 [Example 439, 2-Pyridin-3-yl-N-{3-[3-(thien-2-ylcarbonyl)pyrazolo[1,5-a]pyrimidin-7-yl]phenyl}acetamide]	1000 to 10000 nM	< 100 nM
O=C(CCc1ccncc1)Nc1cccc(-c2ccnc3c(C(=O)c4cccs4)cnn23)c1 [Example 440, 3-Pyridin-4-yl-N-{3-[3-(thien-2-ylcarbonyl)pyrazolo[1,5-a]pyrimidin-7-yl]phenyl}propanamide]	1000 to 10000 nM	100 to 1000 nM
O=C(Nc1cccc(-c2ccnc3c(C(=O)c4cccs4)cnn23)c1)c1cn[nH]c1 [Example 441, N-{3-[3-(Thien-2-ylcarbonyl)pyrazolo[1,5-a]pyrimidin-7-yl]phenyl}-1H-pyrazole-4-carboxamide]	10000 to 50000 nM	1000 to 20000 nM
O=C(O)CCC(=O)Nc1cccc(-c2ccnc3c(C(=O)c4cccs4)cnn23)c1 [Example 442, 4-Oxo-4-({3-[3-(thien-2-ylcarbonyl)pyrazolo[1,5-a]pyrimidin-7-yl]phenyl}amino)butanoic acid]	10000 to 50000 nM	1000 to 20000 nM
O=C(O)c1ccccc1C(=O)Nc1cccc(-c2ccnc3c(C(=O)c4cccs4)cnn23)c1 [Example 443, 2-[({3-[3-(Thien-2-ylcarbonyl)pyrazolo[1,5-a]pyrimidin-7-yl]phenyl}amino)carbonyl]benzoic acid]	10000 to 50000 nM	1000 to 20000 nM
O=C(O)CCCC(=O)Nc1cccc(-c2ccnc3c(C(=O)c4cccs4)cnn23)c1 [Example 444, 5-Oxo-5-({3-[3-(thien-2-ylcarbonyl)pyrazolo[1,5-a]pyrimidin-7-yl]phenyl}amino)pentanoic acid]	10000 to 50000 nM	1000 to 20000 nM
CC(CC(=O)O)CC(=O)Nc1cccc(-c2ccnc3c(C(=O)c4cccs4)cnn23)c1 (stereo not shown) [Example 445, 3-Methyl-5-oxo-5-({3-[3-(thien-2-ylcarbonyl)pyrazolo[1,5-a]pyrimidin-7-yl]phenyl}amino)pentanoic acid]	10000 to 50000 nM	1000 to 20000 nM
O=C(O)c1cc(Cl)c(Cl)cc1C(=O)Nc1cccc(-c2ccnc3c(C(=O)c4cccs4)cnn23)c1 [Example 446, 4,5-Dichloro-2-[({3-[3-(thien-2-ylcarbonyl)pyrazolo[1,5-a]pyrimidin-7-yl]phenyl}amino)carbonyl]benzoic acid]	10000 to 50000 nM	1000 to 20000 nM
CCCCCCCCCC(C)CNc1cccc(-c2ccnc3c(C(=O)c4cccs4)cnn23)c1 (stereo not shown) [Example 447, (7-{3-[(2-Methylundecyl)amino]phenyl}pyrazolo[1,5-a]pyrimidin-3-yl)(thien-2-yl)methanone]	10000 to 50000 nM	1000 to 20000 nM

Compound	IC50 [1]	IC50 [2]
O=C(CCc1cccnc1)Nc1cccc(-c2ccnc3c(C(=O)c4cccs4)cnn23)c1 [Example 448, 3-Pyridin-3-yl-N-{3-[3-(thien-2-ylcarbonyl)pyrazolo[1,5-a]pyrimidin-7-yl]phenyl}propanamide]	10000 to 50000 nM	100 to 1000 nM
O=C(CSc1ccncc1)Nc1cccc(-c2ccnc3c(C(=O)c4cccs4)cnn23)c1 [Example 449, 2-(Pyridin-4-ylthio)-N-{3-[3-(thien-2-ylcarbonyl)pyrazolo[1,5-a]pyrimidin-7-yl]phenyl}acetamide]	10000 to 50000 nM	100 to 1000 nM
CN(C)c1ccc(-c2cccc(-c3ccnc4c(C(=O)c5cccs5)cnn34)c2)cc1 [Example 450, {7-[4′-(Dimethylamino)-1,1′-biphenyl-3-yl]pyrazolo[1,5-a]pyrimidin-3-yl}(thien-2-yl)methanone]	< 1000 nM	< 100 nM
Nc1cccc(-c2cccc(-c3ccnc4c(C(=O)c5cccs5)cnn34)c2)c1 [Example 451, [7-(3′-Amino-1,1′-biphenyl-3-yl)pyrazolo[1,5-a]pyrimidin-3-yl](thien-2-yl)methanone]	< 1000 nM	100 to 1000 nM
O=C(c1cccs1)c1cnn2c(-c3cccc(-c4ccc(CO)cc4)c3)ccnc12 [Example 452, {7-[4′-(Hydroxymethyl)-1,1′-biphenyl-3-yl]pyrazolo[1,5-a]pyrimidin-3-yl}(thien-2-yl)methanone]	< 1000 nM	< 100 nM
CN(C)c1cccc(-c2cccc(-c3ccnc4c(C(=O)c5cccs5)cnn34)c2)c1 [Example 453, {7-[3′-(Dimethylamino)-1,1′-biphenyl-3-yl]pyrazolo[1,5-a]pyrimidin-3-yl}(thien-2-yl)methanone]	1000 to 10000 nM	100 to 1000 nM
CN(C)c1ccc(-c2cc(-c3ccnc4c(C(=O)c5cccs5)cnn34)ccc2F)cc1 [Example 454, {7-[4′-(Dimethylamino)-6-fluoro-1,1′-biphenyl-3-yl]pyrazolo[1,5-a]pyrimidin-3-yl}(thien-2-yl)methanone]	1000 to 10000 nM	100 to 1000 nM
O=C(c1cccs1)c1cnn2c(-c3ccc(F)c(-c4ccc(CO)cc4)c3)ccnc12 [Example 455, {7-[6-Fluoro-4′-(hydroxymethyl)-1,1′-biphenyl-3-yl]pyrazolo[1,5-a]pyrimidin-3-yl}(thien-2-yl)methanone]	1000 to 10000 nM	100 to 1000 nM
CCc1ccc(-c2cccc(-c3ccnc4c(C(=O)c5cccs5)cnn34)c2)cc1 [Example 456, [7-(4′-Ethyl-1,1′-biphenyl-3-yl)pyrazolo[1,5-a]pyrimidin-3-yl](thien-2-yl)methanone]	< 1000 nM	< 100 nM
O=C(O)CCc1ccc(-c2cccc(-c3ccnc4c(C(=O)c5cccs5)cnn34)c2)cc1 [Example 457, 3-{3′-[3-(Thien-2-ylcarbonyl)pyrazolo[1,5-a]pyrimidin-7-yl]-1,1′-biphenyl-4-yl}propanoic acid]	10000 to 50000 nM	100 to 1000 nM
O=Cc1ccc(-c2cccc(-c3ccnc4c(C(=O)c5cccs5)cnn34)c2)cc1 [Example 458, 3′-[3-(Thien-2-ylcarbonyl)pyrazolo[1,5-a]pyrimidin-7-yl]-1,1′-biphenyl-4-carbaldehyde]	1000 to 10000 nM	100 to 1000 nM
O=C(c1cccs1)c1cnn2c(-c3cccc(-c4ccc(CNCCN5CCOCC5)cc4)c3)ccnc12 [Example 461, [7-(4′-{[(2-Morpholin-4-ylethyl)amino]methyl}-1,1′-biphenyl-3-yl)pyrazolo[1,5-a]pyrimidin-3-yl](thien-2-yl)methanone]	1000 to 10000 nM	100 to 1000 nM
CCN(CC)Cc1ccc(-c2cccc(-c3ccnc4c(C(=O)c5cccs5)cnn34)c2)cc1 [Example 462, (7-{4′-[(Diethylamino)methyl]-1,1′-biphenyl-3-yl}pyrazolo[1,5-a]pyrimidin-3-yl)(thien-2-yl)methanone]	1000 to 10000 nM	100 to 1000 nM
CN(C)Cc1ccc(-c2cccc(-c3ccnc4c(C(=O)c5cccs5)cnn34)c2)cc1 [Example 463, (7-{4′-[(Dimethylamino)methyl]-1,1′-biphenyl-3-yl}pyrazolo[1,5-a]pyrimidin-3-yl)(thien-2-yl)methanone]	< 1000 nM	< 100 nM
CC(C)CC(=O)Nc1cccc(-c2ccnc3c(-c4cccc(N(C)C)c4)cnn23)c1 [Example 465, N-(3-{3-[3-(Dimethylamino)phenyl]pyrazolo[1,5-a]pyrimidin-7-yl}phenyl)-3-methylbutanamide]	< 1000 nM	< 100 nM
CC(C)CC(=O)Nc1cccc(-c2ccnc3c(-c4ccc5[nH]ccc5c4)cnn23)c1 [Example 466, N-{3-[3-(1H-Indol-5-yl)pyrazolo[1,5-a]pyrimidin-7-yl]phenyl}-3-methylbutanamide]	1000 to 10000 nM	< 100 nM
